# Measurements published in patent publication US20100190849A1, “Novel Clerodanes and Methods for Repelling Arthropods” (priority 2006, published 2010).
# Marks after values point to notes of the source that are not given here.
# Legend:
# Test in all cases: Multiple-choice digging bioassay, fire ant workers
# Assay type in all cases: in vivo
# [1] = test system: red imported fire ants, Solenopsis invicta Buren
# Description: (§1) The repellency of the two terpenoids, callicarpenal and intermedeol, against workers of red imported fire ants, Solenopsis invicta Buren, black imported fire ants, Solenopsis rickeri Forel, and a hybrid of these two species was evaluated using multiple-choice digging bioassays (Tables 9 & 10). […] Callicarpenal and intermedeol were compared with octanoic acid, a known fire ant repellant, at the 25.00 ppm level using two-choice digging bioassays (FIGS. 3 and 4).
# (§2) Ants: Two Solenopsis invicta colonies were collected in Sharkey County, Mississippi, and two Solenopsis richteri colonies were collected in Granada County, Mississippi. Two colonies of the hybrid (S. invicta×S. richteri) colony were collected in Sunflower County, Mississippi. Fire ant mounds were shoveled and placed in 19-L plastic buckets. The inside wall of the bucket was then coated with baby powder (Cumberland Swan Holdings, Inc., Smyrna, Tenn.) to prevent ant escape. Following the water-drip method developed by Bank et al. (Banks, W. A., et al., Techniques for collecting, rearing, and handling imported fire ants, USDA SEA AATS-S-21 (1981)), ants were separated and then placed in a 44.5×60.0×13.0 cm plastic tray with inside walls coated with Fluon® (Ag Fluoropolymers, Chadds Ford, Pa.). Distilled water and 15% (w/v) sucrose water solution in separated test tubes which were plugged with cotton balls were placed in the trays. Heliocoverpa zea (Boddie) and tobacco budworm, Heliothis virescens (Fabricius) pupae were used as food sources. Inside each tray were one to three 14.0×2.0 cm Petri dishes with 1.0 cm of hardener dental plaster (Castone®; Dentsply International Inc. York, Pa.) on the bottom. Also, in the center of the Petri dish was a 5.0-cm diameter brood chamber. Two 8-mm access holes were made on the wall of the petri dish above the dental plaster. The Petri dish lid was painted black (1302 Gloss Black Spray Enamel, Louisville, Ky.)to block the light. All colonies were maintained at 22-25° C.
# (§3) Fire ant workers dug and removed sand from the tube through the entry hole. The differences in the amount of removed sand among treated and control tubes were used to evaluate chemical repellency. Four 2 ml centrifuge tubes were mounted under a 14.0×2.3 cm Petri dish using glue (Arrow Fastener Co., inc., Saddle Brook, N.J.). Tubes were 5.0 cm away from the center of the Petri dish and at equal distance from each other. A 3-mm diameter access hole was drilled for each centrifuge tube, which went through the bottom of the Petri dish and the cap of the tube. The inner side of the Petri dish was coated with Fluon. Three concentrations of a test compound and one control were set up in each apparatus. Six concentrations, including […], 6.25, 12.50, and 25.00 ppm, were tested in two separated bioassays for each species and hybrid; however three more concentrations of callicarpenal, 50.00, 100.00, and […], were tested for S. invicta. Sand (Premium Play Sand, Plassein International, Longview, Tex.) was first sieved through a ™35 U.S.A. standard testing sieve (Thomas Scientific, Swedesboro, N.J.) and then washed with distilled water and dried at 350° C. for 12 h. A 3 ml dichloromethane solution of callicarpenal or intermedeol was mixed with 30 g sand in an aluminum pan. The sand was stirred every 2 min to facilitate the evaporation of the solvent under a fume hood. After dichloromethane evaporated (5 minutes), 1.92 ml distilled water was added and mixed with sand. Sand in the control tube was treated only with dichloromethane. In each tube a mean (±SD) 2.78 g (±0.06 g) wet sand was added. There was no open space inside the tube. Locations of each concentration were randomized. Fifty fire ant workers were introduced into the center of the Petri Dish. The experiment was conducted at 22±0.8° C. (mean±SD) temperature and 45.4%±11.87% relative humidity. After 24 h, sand in each vial was collected, dried at 150° C. for at least 4 hour, and weighed. […]
# [2] = test system: black imported fire ants, Solenopsis richteri Forel
# Description: as §1, §2, §3
# [3] = test system: hybrid (S. invicta×S. richteri)
# Description: as §1, §2, §3
structure (smiles),measurement,setting,value
"C=C(C)C1CCC2(C)CCCC(C)(O)C2C1 [intermedeol, (4S,5S,7R,10S)-eudesm-11-en-4-ol]","Sand removed (SE), mean weight of sand removed by ants 24 h after release","[1]; S. invicta colony 1, Exp. 15, 0.75 ppm",0.56 (0.06) g
same,"Sand removed (SE), mean weight of sand removed by ants 24 h after release","[1]; S. invicta colony 1, Exp. 15, 1.50 ppm",0.36 (0.09)* g
same,"Sand removed (SE), mean weight of sand removed by ants 24 h after release","[1]; S. invicta colony 1, Exp. 15, 3.15 ppm",0.20 (0.06)* g
same,"Sand removed (SE), mean weight of sand removed by ants 24 h after release","[1]; S. invicta colony 1, Exp. 16, 6.25 ppm",0.66 (0.15)* g
same,"Sand removed (SE), mean weight of sand removed by ants 24 h after release","[1]; S. invicta colony 1, Exp. 16, 12.50 ppm",0.25 (0.13)* g
same,"Sand removed (SE), mean weight of sand removed by ants 24 h after release","[1]; S. invicta colony 1, Exp. 16, 25.00 ppm",0.18 (0.09)* g
same,"Sand removed (SE), mean weight of sand removed by ants 24 h after release","[1]; S. invicta colony 2, Exp. 17, 0.75 ppm",0.44 (0.10)* g
same,"Sand removed (SE), mean weight of sand removed by ants 24 h after release","[1]; S. invicta colony 2, Exp. 17, 1.50 ppm",0.35 (0.08)* g
same,"Sand removed (SE), mean weight of sand removed by ants 24 h after release","[1]; S. invicta colony 2, Exp. 17, 3.15 ppm",0.35 (0.12)* g
same,"Sand removed (SE), mean weight of sand removed by ants 24 h after release","[1]; S. invicta colony 2, Exp. 18, 6.25 ppm",0.17 (0.08)* g
same,"Sand removed (SE), mean weight of sand removed by ants 24 h after release","[1]; S. invicta colony 2, Exp. 18, 12.50 ppm",0.02 (0.01)* g
same,"Sand removed (SE), mean weight of sand removed by ants 24 h after release","[1]; S. invicta colony 2, Exp. 18, 25.00 ppm",0.04 (0.01)* g
same,"Sand removed (SE), mean weight of sand removed by ants 24 h after release","[2]; S. richteri colony 1, Exp. 19, 0.75 ppm",0.10 (0.06) g
same,"Sand removed (SE), mean weight of sand removed by ants 24 h after release","[2]; S. richteri colony 1, Exp. 19, 1.50 ppm",0.46 (0.18) g
same,"Sand removed (SE), mean weight of sand removed by ants 24 h after release","[2]; S. richteri colony 1, Exp. 19, 3.15 ppm",0.24 (0.11) g
same,"Sand removed (SE), mean weight of sand removed by ants 24 h after release","[2]; S. richteri colony 1, Exp. 20, 6.25 ppm",0.16 (0.10)* g
same,"Sand removed (SE), mean weight of sand removed by ants 24 h after release","[2]; S. richteri colony 1, Exp. 20, 12.50 ppm",0.07 (0.04)* g
same,"Sand removed (SE), mean weight of sand removed by ants 24 h after release","[2]; S. richteri colony 1, Exp. 20, 25.00 ppm",0.04 (0.01)* g
same,"Sand removed (SE), mean weight of sand removed by ants 24 h after release","[2]; S. richteri colony 2, Exp. 21, 0.75 ppm",0.16 (0.12) g
same,"Sand removed (SE), mean weight of sand removed by ants 24 h after release","[2]; S. richteri colony 2, Exp. 21, 1.50 ppm",0.26 (0.17) g
same,"Sand removed (SE), mean weight of sand removed by ants 24 h after release","[2]; S. richteri colony 2, Exp. 21, 3.15 ppm",0.17 (0.16) g
same,"Sand removed (SE), mean weight of sand removed by ants 24 h after release","[2]; S. richteri colony 2, Exp. 22, 6.25 ppm",0.02 (0.01)* g
same,"Sand removed (SE), mean weight of sand removed by ants 24 h after release","[2]; S. richteri colony 2, Exp. 22, 12.50 ppm",0.14 (0.07)* g
same,"Sand removed (SE), mean weight of sand removed by ants 24 h after release","[2]; S. richteri colony 2, Exp. 22, 25.00 ppm",0.02 (0.02)* g
same,"Sand removed (SE), mean weight of sand removed by ants 24 h after release","[3]; Hybrid colony 1, Exp. 23, 0.75 ppm",0.43 (0.15) g
same,"Sand removed (SE), mean weight of sand removed by ants 24 h after release","[3]; Hybrid colony 1, Exp. 23, 1.50 ppm",0.10 (0.03)* g
same,"Sand removed (SE), mean weight of sand removed by ants 24 h after release","[3]; Hybrid colony 1, Exp. 23, 3.15 ppm",0.10 (0.03)* g
same,"Sand removed (SE), mean weight of sand removed by ants 24 h after release","[3]; Hybrid colony 1, Exp. 24, 6.25 ppm",0.45 (0.08)* g
same,"Sand removed (SE), mean weight of sand removed by ants 24 h after release","[3]; Hybrid colony 1, Exp. 24, 12.50 ppm",0.37 (0.04)* g
same,"Sand removed (SE), mean weight of sand removed by ants 24 h after release","[3]; Hybrid colony 1, Exp. 24, 25.00 ppm",0.20 (0.09)* g
same,"Sand removed (SE), mean weight of sand removed by ants 24 h after release","[3]; Hybrid colony 2, Exp. 25, 0.75 ppm",0.34 (0.14) g
same,"Sand removed (SE), mean weight of sand removed by ants 24 h after release","[3]; Hybrid colony 2, Exp. 25, 1.50 ppm",0.25 (0.10) g
same,"Sand removed (SE), mean weight of sand removed by ants 24 h after release","[3]; Hybrid colony 2, Exp. 25, 3.15 ppm",0.28 (0.09) g
same,"Sand removed (SE), mean weight of sand removed by ants 24 h after release","[3]; Hybrid colony 2, Exp. 26, 6.25 ppm",0.20 (0.08)* g
same,"Sand removed (SE), mean weight of sand removed by ants 24 h after release","[3]; Hybrid colony 2, Exp. 26, 12.50 ppm",0.10 (0.04)* g
same,"Sand removed (SE), mean weight of sand removed by ants 24 h after release","[3]; Hybrid colony 2, Exp. 26, 25.00 ppm",0.04 (0.01)* g
